Results published in patent publication US5739115A, “Sulfated maltooligosaccharides with heparin-like properties” (Glycomed Incorporated, priority 1994, dated 1998).
Blank lines part the entries; values can stand above or below the compound they belong to.

Legend:
[1] = test system: chicken chorioallantoic membrane (CAM); assay: Chicken chorioallantoic membrane (CAM) assay, angiostatic activity; format: in vivo
From the text: Compositions that stimulate or inhibit angiogenesis can be identified using several assays known in the art. The chick chorioallantoic membrane (CAM) assay is commonly used. Using the CAM assay, certain heparinoids inhibit angiogenesis when administered with certain steroids. Folkman and Ingber, Ann, Surg. (1987) 206:374, Folkman et at., Science (1983) 221:719.
Compositions that stimulate or inhibit angiogenesis can be identified using several assays known in the art. Highly sulfated maltotetraose, Composition 5, Table 2, was tested for angiogenesis activity using the chicken chorioallantoic membrane (CAM) assay. The assay was performed as described by Castellot et. at., J. of Cellular Physiology (1986) 127: 323-329, with the exception that samples were evaluated for their efficacy to inhibit neovascularization. Carboxy methyl cellulose pellets containing 50 ug of hydrocortisone, or hydrocortisone plus different amounts of highly sulfated maltotetraose were incubated on the CAM for 3-4 days before scoring the results. Highly sulfated maltotetraose was produced as described in Example 2. Angiostatic activity is defined as a partial clearing or an avascular zone around the pellet. […]

[2] = test system: pericyte and smooth muscle cell; details: literature; result in words; cited from earlier work
vascular proliferation = details: literature; result in words; cited from earlier work
[3] = test system: Bovine smooth muscle cells (SMC); assay: Inhibition of smooth muscle cell (SMC) growth; format: cell-based; details: for inhibition of SMC growth (anti-proliferative activity): relative to heparin
From the text: Maltotetraose, maltopentaose and maltohexaose were sulfated as described in Examples 1-3, and assayed for their effects on smooth muscle cell proliferation using a standard assay for this activity. A convenient assay, in detail, is as follows:
Solutions to be tested are made up in DMEM medium containing 10% fetal calf serum and penicillin/streptomycin. Bovine smooth muscle cells (SMC) are isolated from bovine aorta by the method of Ross, R., J Cell Biol (1971) 172-186. SMC from passage 3-10 are plated at 350-700 cells per well in 96-well microtiter plates in the medium above and allowed to attach for 2-4 hr. The complete medium is then replaced with DMEM supplemented with 0.1% fetal calf serum, and the cells are incubated for an additional period of about 24 to 72 hr to arrest cell growth. The low-serum medium is then replaced with complete medium containing the test samples. The sulfated maltose oligosaccharides of the invention were added to the medium to make final concentrations as shown in the figures. The effects of heparin at the same concentrations were also determined.
The cells are allowed to grow for up to 7 days with replicate plates sampled at regular intervals. Cell number is determined by removing the medium and washing the cells with phosphate-buffered saline, adding 75-150 ul lysis buffer, and assaying for lactate dehydrogenase (LDH) activity, as described by Brandley, B., et at., J Biol Chem (1987) 262:6431. The activity of LDH is proportional to cell number.

bFGF = assay: Binding of RO-12 UC cells to bFGF coated micro-titer wells; format: cell-based, human; details: result in words, FIGS. 1 and 3
Method: Bound cells are readily quantitated as total protein.
The assay was run as follows: Fifty microliters of 10 ug/ml human recombinant bFGF was added to wells of a 96-well tissue culture plate and incubated overnight at 4° C. The wells were aspirated with PBS to remove any unbound bFGF, rinsed twice with PBS, and subsequently incubated with PBS containing 5% (v/v) fetal bovine serum for 1 hour at room temperature. RO-12 UC cells were suspended at a density of 3×10^6 cells/ml in PBS containing 5% fetal bovine serum. To this mixture was added the desired amount of sulfated composition, or heparin. […] Next, 100 ul of the cell suspension was immediately added to the microtiter wells, and incubated for 5 minutes, after which the wells were washed 3 times with PBS. Finally, the amount of cell protein bound to the wells was determined by dissolving the bound cells in 20 ul of 5% SDS and measuring the protein. concentration of the cell lysates. BSA was used as the standard.

[4] = test system: basic fibroblast growth factor; details: literature; result in words; cited from earlier work
[5] = test system: adrenocortical endothelial (ACE) cell line; assay: Inhibition of bFGF-dependent adrenocortical endothelial (ACE) cell proliferation; format: cell-based; details: 2 ng/ml bFGF, four days, result in words, FIGS. 2 and 4
Method: The capacity of the sulfated maltohexaoses to inhibit the proliferation of a bFGF-dependent adrenocortical endothelial (ACE) cell line was determined. This cell line (provided by D. Gospodarowicz, UCSF) requires either aFGF or bFGF for a proliferative response. Cells were seeded at low density in microtiter wells in the presence of 2 ng/ml bFGF, and growth was determined as total protein after four days in the presence of the sulfated maltohexaoses.

heparanase = assay: Heparanase inhibition, rat hepatoma cell heparanase; format: biochemical
Method: Highly sulfated maltotetraose, Composition 5, Table 2, maltoheptaose and maltose were tested for heparanase inhibitory activity using heparanase from a rat hepatoma cell line. […] Further, their inhibitory activities were compared to porcine mucosal heparin. […] The following procedures and materials were used. Confluent rat hepatoma cell cultures were grown in standard cell culture flasks, and washed 3 times with 10 ml of a 50 mM Hepes solution containing 0.25M sucrose and 0.14M NaCl, pH 7.4. Next, 1 ml of a 50 mM MES buffer, pH 5.2, containing 0.14M NaCl, 6 mM sodium azide, and certain protease inhibitors was added and the cells removed from the flask using a disposable cell scraper. The following protease inhibitors were present in the MES buffer: 0.2 ug/ml aprotinin, 0.5 ug/ml leupeptin, 100 ug/ml soybean trypsin inhibitor, 1 mM PMSF, 2 mM EDTA (sodium salt), and 15 mM D-saccharic acid 1,4 lactone (exoglucuronidase inhibitor).
The cells were added to a 7 ml Dounce homogenizer, freezed/thawed 3 times in an ethanol/dry ice bath, and homogenized with 15 strokes using a tight pestle. The resulting cell lysates were placed in a 2 ml centrifuge tube and centrifuged at 4° C. for 30 minutes at 16,000×g. The supernatant was removed, and the protein concentration in the supernatant determined using the Macro BCA protein assay. BSA was used as a standard. Heparanase activity was quantified by measuring soluble N-^3 H-acetylated pancreas heparan sulfate fragments derived from uncleaved N-^3 H-acetylated pancreas heparan sulfate distinguishable by cetylpyridinium chloride (CPC) precipitation. […] The following procedures were used.
Next, 10 ul of distilled water containing various concentrations of porcine mucosal heparin, or the appropriate highly sulfated maltooligosaccharide, was added. Then, 30 ul of rat hepatoma cell supernatant, isolated as described above, containing 7.5-10 ug of protein in 50mM MES buffer, pH 5.2, containing 0.14M NaCl, 6mM sodium azide and the protease inhibitors described above, is added to siliconized 1.5 ml microcentrifuge tubes. Three to six replicates were run for each concentration of highly sulfated maltotetraose while three replicates were run for each concentration of porcine mucosal heparin. Controls were run to account for background counts.
The enzyme substrate inhibitor mixture was mixed, after which the tubes were incubated at 37° C. for 20 minutes. After 20 minutes, the reaction was stopped by adding to the reaction tubes 150 ul of an aqueous heparin solution (0.33 mg/ml). 200 ul of 100 mM sodium acetate pH 5.5 and 100 ul of CPC (0.6% in water) were then added. Three replicates maintained on ice were run as background controls (0 min.) in which the enzyme was added to the tubes immediately followed by heparin to terminate the reaction. […]

PC-3 = PC-3 prostatic adenocarcinoma tumor growth in nude mice; format: in vivo, human tumor in nude mouse; details: 80 mg/kg/day subcutaneous, 23 days, all time points tested; result in words
Method: (§1) Experiments were conducted to test the efficacy of highly sulfated maltotetraose, Composition 5, Table 2, on tumor growth in an animal model system, the nude mouse. The growth of human tumors in the nude mouse has clinical relevance to the growth of tumors in humans.
(§2) Three human tumor cell lines were utilized, the mammary adenocarcinoma, MDA231, the pancreatic tumor cell line, CAPAN-2, and the prostatic adenocarcinoma cell line, PC-3. All cell lines are available from the American Type Culture Collection, and grow aggressively in nude mice. The experiments were conducted as follows: female, 15-20 gram nude mice, in groups of ten, were inoculated subcutaneously with 3-5×10^6 viable MDA231, CAPAN-2, or PC-3 cells in 0.1 ml PBS. The cells were grown in standard DMEM tissue culture media supplemented with 10% fetal calf serum in a humidified 5% CO2 incubator at 37° C. The cells were harvested with trypsin-EDTA, washed 2× with PBS, resuspended at a concentration of 3-5×10^7 cells/ml, and placed on ice prior to injection.
[…] The composition was filter sterilized with a 0.2 um Gelman filter unit.
(§3) Tumor volume was determined using the following formula: [formula]
Finally, the effects of highly sulfated maltotetraose on the human prostatic adenocarcinoma line, PC-3, was determined. This cell line is also available from the American Type Culture Collection. […]

CAPAN-2 = CAPAN-2 pancreatic tumor growth in nude mice; format: in vivo, human tumor in nude mouse; details: dosed once daily from day 0; result in words
Method: as §1
as §2, with “injection. […]” for “injection.”
as §3
The effects of highly satfated maltotetraose on CAPAN-2 tumor cell growth were determined using the materials and methods set forth above with the following exceptions. […]

MDA231 = MDA231 mammary adenocarcinoma tumor growth in nude mice; format: in vivo, human tumor in nude mouse; details: for MDA231 tumor growth inhibition: result in words
Method: as §1, §2
On a dally basis, the mice were subcutaneously injected with 100 mg/kg of highly sulfated maltotetraose made up in PBS, and produced as described in Example 2. The composition was filter sterilized with a 0.2 um Gelman filter unit.
as §3
Control mice were injected with PBS vehicle only. Experimental and control mice were injected twice daily with 0.05 ml of the appropriate solution starting on days 0-40 post tumor challenge. From days 41-70 the animals were dosed once daily with 100 mg/kg/day in a volume of 0.1 ml per injection, and tumor volume measured at defined times using standard methods.

[6] = hydrocortisone 50 ug/pellet alone, 24 hr
[7] = listed as highly sulfated maltose
[8] = listed as highly sulfated maltotriose

Compound: C[C@]12CCC(=O)C=C1CC[C@@H]1[C@@H]2[C@@H](O)C[C@@]2(C)[C@H]1CC[C@]2(O)C(=O)CO [Hydrocortisone, hydrocortisone]
number of embryos scored, NO EFFECT [1, 6]: 27 embryos
number of embryos scored, avascular zone (++) [1, 6]: 0 embryos
number of embryos scored, partial clearing (+) [1, 6]: 2 embryos

Compound: chondroitin sulfate
inhibition of pericyte and/or smooth muscle cell proliferation [2]: do not have this effect

Compound: dermatan sulfate
inhibition of pericyte and/or smooth muscle cell proliferation [2]: do not have this effect

Compound: heparan sulfate
vascular proliferation associated with injury (vascular proliferation): slow or arrest the vascular proliferation

Compound: heparin
concentration that gave 100% inhibition of SMC proliferation ([3]; heparin reference): 150 µg/mL
inhibition of binding of RO-12 UC cells to bFGF coated wells (bFGF): inhibits RO-12 UC cell binding
vascular proliferation associated with injury (vascular proliferation): slow or arrest the vascular proliferation
inhibition of pericyte and/or smooth muscle cell proliferation [2]: inhibitor of both pericyte and smooth muscle cell proliferation
binding to basic fibroblast growth factor [4]: binds heparin quite strongly in vitro

Compound: highly sulfated maltoheptaose [Composition 7]
inhibition of adrenocortical endothelial cell proliferation [5]: significant activity
inhibition of binding of RO-12 UC cells to bFGF coated wells (bFGF): significant activity
heparanase inhibition (heparanase; result in words): as active as heparin

Compound: highly sulfated maltopentaose [Composition 6]
inhibition of adrenocortical endothelial cell proliferation [5]: significant activity
inhibition of SMC growth, per cent of heparin inhibition ([3]; about 50 ug/ml): 100%
inhibition of SMC growth (anti-proliferative activity) ([3]; result in words): more effective in inhibiting SMC proliferation than the smaller-sized sulfated maltotetraose
inhibition of binding of RO-12 UC cells to bFGF coated wells (bFGF): significant activity

Compound: highly sulfated maltose [Composition 9]
inhibition of adrenocortical endothelial cell proliferation [5]: little or no activity relative to the highly sulfated maltotetraose composition
inhibition of adrenocortical endothelial cell proliferation [5, 7]: less active
inhibition of binding of RO-12 UC cells to bFGF coated wells (bFGF): little or no activity relative to the highly sulfated maltotetraose composition
inhibition of binding of RO-12 UC cells to bFGF coated wells (bFGF; [7]): less active
heparanase inhibition (heparanase; at greater than 200 ug/ml, result in words): no activity

heparanase IC50 (heparanase; rat hepatoma heparanase, pH 5.2, 37° C., 20 minutes): 9.0 mg/L
Compound: highly sulfated maltotetraose [Composition 5]
PC-3 growth inhibition (PC-3): inhibited PC-3 cell growth at all the time points tested
inhibition of adrenocortical endothelial cell proliferation [5]: significant activity
inhibition of SMC growth ([3]; 150 ug/ml, result in words): one hundred per cent inhibition was not observed
inhibition of SMC growth, per cent of heparin inhibition ([3]; about 60 ug/ml): about 50%
inhibition of SMC growth (anti-proliferative activity) ([3]; result in words): significant anti-proliferative effects, although not as great as heparin
angiostatic activity ([1]; HSM alone, without hydrocortisone, result in words): inactive
inhibition of binding of RO-12 UC cells to bFGF coated wells (bFGF): significant activity
CAPAN-2 tumor growth inhibition (CAPAN-2): significantly inhibits tumor growth
MDA231 tumor growth inhibition (MDA231; 100 mg/kg subcutaneous): tumor growth is significantly inhibited
time at which inhibition is first apparent (MDA231; MDA231, about): 36 to 37 days
tumor volume (MDA231; MDA231, days 68-69, control about 375 mm^3): ~125 mm^3
MDA231 tumor growth inhibition (MDA231; by days 68-69): dramatic
heparanase inhibition relative to porcine mucosal heparin (heparanase; result in words, FIG. 11): approximately one half as effective as porcine mucosal heparin

Compound: highly sulfated maltotriose [Composition 8]
inhibition of adrenocortical endothelial cell proliferation [5, 8]: less active
inhibition of adrenocortical endothelial cell proliferation ([5]; listed as sulfated maltotriose): little or no activity
inhibition of binding of RO-12 UC cells to bFGF coated wells (bFGF; [8]): less active
inhibition of binding of RO-12 UC cells to bFGF coated wells (bFGF; listed as sulfated maltotriose): little or no activity
